Experiment in all cases: MIC determination by in vitro antifungal assay
What all share (type): cell-based, Candida auris

The test system of assay [1] is C. auris strain AR Bank #390 (L). The procedure: (§1) The antifungal agent amphotericin B (AmB) was purchased from VWR (Radnor PA, USA). AmB was dissolved in DMSO at a final concentration of 5 mg/mL and was stored at −20° C., protected from light. Candida albicans American Type Culture Collection (ATCC) 10231 (strain A), C. albicans ATCC 64124 (B), and C. albicans ATCC MYA-2876 (C) were obtained from Utah State University. C. albicans ATCC 90819 (D), C. albicans ATCC MYA-2310 (E), C. albicans ATCC MYA-1237 (F), C. albicans ATCC MYA-1003 (G), Candida glabrata ATCC 2001 (H), Candida krusei ATCC 6258 (I), Candida parapsilosis ATCC 22019 (J), Cryptococcus neoformans ATCC MYA-895 (M), Aspergillus terreus ATCC MYA-3633 (N), and Aspergillus flavus ATCC MYA-3631 (0) were obtained from the American Type Culture Collection (ATCC; Manassas, VA, USA). Aspergillus nidulans ATCC 38163 (P) was obtained from University of Kentucky. Clinically derived Aspergillus fumigatus NRRL 163 (Q), A. fumigatus NRRL 5109 (R), and A. fumigatus NRRL 6113 (S) were obtained from Northern Regional Research Laboratory (NRRL). Candida auris 384 (K), C. auris 390 (L), and fungal strains 381-400 (including 10 C. auris (AR Bank #381-390), 3 Candida duobushaemulonii (AR Bank #391, AR Bank #392, and AR Bank #394), 2 Candida haemulonii (AR Bank #393 and AR Bank #395), 1 Kodameae ohmeri (AR Bank #396), 1 C. krusei (AR Bank #397), 1 Candida lusitaniae (AR Bank #398), and 2 Saccharomyces cerevisiae strains (AR Bank #399 and AR Bank #400)) were part of a larger fungal library from the AR Bank maintained by the Centers for Disease Control and Prevention (CDC; Atlanta, GA, USA). Filamentous fungi and yeasts were cultivated at 35° C. in RPMI 1640 medium (with L-glutamine, without sodium bicarbonate, Sigma-Aldrich, St. Louis, MO) buffered to a pH of 7.0 with 0.165 M morpholinepropanesulfonic acid (MOPS) buffer (Sigma-Aldrich). For cytotoxicity assays, HepG2 and the mouse macrophage cell line J774A.1 were obtained from University of Kentucky. The human embryonic kidney cell line, HEK-293, was bought from the ATCC. Mammalian cells were grown in Dulbecco's Modified Eagle's Medium (DMEM) (from VWR) with 10% fetal bovine serum (FBS) (from VWR) and 1% Pen/Strep (from ATCC). Cell lines were cultured at 37° C. with 5% CO2 and passaged by trypsinization with 0.05% trypsin: 0.53 mM EDTA (from Sigma-Aldrich).
(§2) From the actively growing yeast culture, 100 µL were then transferred to 900 μL of RPMI 1640 medium and re-adjusted to achieve OD600 of 0.12 (˜1×10^6 CFU/mL). The cell suspension was further diluted to achieve 1:100 in RPMI 1640 medium.
Finally, the activity of these monohydrazides was explored against […] non-Candida strains: Cryptococcus neoformans ATCC MYA-895 (M), Aspergillus terreus ATCC MYA-3633 (N), Aspergillus flavus ATCC MYA-3631 (O), Aspergillus nidulans ATCC 38163 (P), Aspergillus fumigatus NRRL 163 (Q), A. fumigatus NRRL 5109 (R), and A. fumigatus NRRL 6113 (S) (Tables 1A and 1B). The double dilution method was used with concentrations ranging from 0.06 to 31.3 j·tg mL^−1 for monohydrazides 1a-9j, and the commercially available positive antifungal control amphotericin B (AmB).

Another assay has as its system C. auris AR Bank #389. The procedure: as §1, §2
The test system of another assay is C. auris AR Bank #385. The procedure:
as §1, §2

The test system of another assay is C. auris AR Bank #381. The protocol:
as §1, §2

The next assay has as its system C. auris AR Bank #386. The protocol:
as §1, §2

In a further assay the test system is C. auris AR Bank #383. The protocol:
as §1, §2

The subject of another assay is C. auris AR Bank #382. The procedure:
as §1, §2

The next assay concerns C. auris AR Bank #387. The protocol: as §1, §2
The next assay deals with C. auris AR Bank #388. The protocol:
as §1, §2

[2] abbreviates: Candidozyma auris, strain L = C. auris AR Bank # 0390 (Tables 1A/1B), read-out: MIC.
The mark [3] stands for this setting: strain L = C. auris AR Bank # 0390 (Tables 1A/1B).
[4] abbreviates: Candidozyma auris, C. auris AR Bank #390 (L), read-out: MIC.
Setting [5] is: Candidozyma auris, C. auris AR Bank #389, read-out: MIC.
Where [6] appears, read: Candidozyma auris, C. auris AR Bank #385, read-out: MIC.
Where [7] appears, read: Candidozyma auris, C. auris AR Bank #381, read-out: MIC.
Setting [8] is: Candidozyma auris, C. auris AR Bank #386, read-out: MIC.
The mark [9] stands for this setting: Candidozyma auris, C. auris AR Bank #383, read-out: MIC.
The mark [10] stands for this setting: Candidozyma auris, C. auris AR Bank #382, read-out: MIC.
[11] abbreviates: Candidozyma auris, C. auris AR Bank #387, read-out: MIC.
The mark [12] stands for this setting: Candidozyma auris, C. auris AR Bank #388, read-out: MIC.

Values after ≈ are worked out from the molar mass of the structure shown. Like-named read-outs stand apart in the source and are kept apart here.

As to `O=C(NNc1ccc(F)cc1F)c1ccc(Br)cn1` [Compound 4g], in assay [1] (setting [2]), the MIC was 31.3 µg/mL (≈ 95.4 µM).

Turning to `O=C(NNc1cccc(F)c1)c1ccccn1` [Compound 2a], the MIC in assay [1] (C. auris AR Bank #390 (L)) stood at 0.24 μg/mL^−1; in assay [1] (setting [3]), 0.33 μg/mL^−1; against C. auris AR Bank #389 (C. auris AR Bank #389), 0.12 μg/mL^−1; in the assay on C. auris AR Bank #385 (C. auris AR Bank #385) it was 0.98 μg/mL^−1; in the assay on C. auris AR Bank #381 (C. auris AR Bank #381), 0.49 μg/mL^−1; in the assay with C. auris AR Bank #386 (C. auris AR Bank #386) it was 0.49 μg/mL^−1. Further, the MIC is 1.95 μg/mL^−1 in the assay with C. auris AR Bank #383 (C. auris AR Bank #383), 0.98 μg/mL^−1 in the assay on C. auris AR Bank #382 (C. auris AR Bank #382), 0.49 μg/mL^−1 in the assay on C. auris AR Bank #387 (C. auris AR Bank #387) and 0.49 μg/mL^−1 in the assay with C. auris AR Bank #388 (C. auris AR Bank #388).

For the molecule `O=C(NNc1ccc(F)cc1)c1ccccn1` [Compound 2d], the MIC in assay [1] (setting [4]) came out at 0.98 µg/mL (≈ 4.24 µM); in assay [1] (setting [2]), 0.98 µg/mL (≈ 4.24 µM); in the assay with C. auris AR Bank #389 (setting [5]), 0.49 µg/mL (≈ 2.12 µM); with C. auris AR Bank #385 (setting [6]), 0.98 µg/mL (≈ 4.24 µM); with C. auris AR Bank #381 (setting [7]) it was 0.98 µg/mL (≈ 4.24 µM); in the assay on C. auris AR Bank #386 (setting [8]), 0.49 µg/mL (≈ 2.12 µM). For the same molecule, the MIC in the assay with C. auris AR Bank #383 (setting [9]) was 1.95 µg/mL (≈ 8.43 µM); with C. auris AR Bank #382 (setting [10]), 1.95 µg/mL (≈ 8.43 µM); in the assay with C. auris AR Bank #387 (setting [11]) it was 0.98 µg/mL (≈ 4.24 µM); in the assay with C. auris AR Bank #388 (setting [12]), 0.98 µg/mL (≈ 4.24 µM).

Turning to `O=C(NNc1ccc(F)cc1F)c1ccc(F)cn1` [Compound 3g], the MIC was 3.9 µg/mL (≈ 14.6 µM) in assay [1] (Candidozyma auris, C. auris AR Bank # 390 (L) (Table 2B), read-out: MIC); 3.9 µg/mL (≈ 14.6 µM) in [1] (setting [2]); 1.95 µg/mL (≈ 7.3 µM) in the assay on C. auris AR Bank #389 (Candidozyma auris, C. auris AR Bank # 389 (Table 2B), read-out: MIC); 0.49 µg/mL (≈ 1.83 µM) in the assay with C. auris AR Bank #385 (Candidozyma auris, C. auris AR Bank # 385 (Table 2B), read-out: MIC); 1.95 µg/mL (≈ 7.3 µM) in the assay with C. auris AR Bank #381 (Candidozyma auris, C. auris AR Bank # 381 (Table 2B), read-out: MIC); 1.95 µg/mL (≈ 7.3 µM) in the assay on C. auris AR Bank #386 (Candidozyma auris, C. auris AR Bank # 386 (Table 2B), read-out: MIC). Besides, the MIC in the assay with C. auris AR Bank #383 (Candidozyma auris, C. auris AR Bank # 383 (Table 2B), read-out: MIC) turned out to be 1.95 µg/mL (≈ 7.3 µM); in the assay on C. auris AR Bank #382 (Candidozyma auris, C. auris AR Bank # 382 (Table 2B), read-out: MIC), 1.95 µg/mL (≈ 7.3 µM); in the assay with C. auris AR Bank #387 (Candidozyma auris, C. auris AR Bank # 387 (Table 2B), read-out: MIC), 0.98 µg/mL (≈ 3.67 µM); in the assay on C. auris AR Bank #388 (Candidozyma auris, C. auris AR Bank # 388 (Table 2B), read-out: MIC), 1.95 µg/mL (≈ 7.3 µM).

In the case of `COc1ccc(NNC(=O)c2ccc(Br)cn2)cc1` [Compound 4f], the MIC in [1] (setting [2]) was 1.95 µg/mL (≈ 6.05 µM).

Turning to `O=C(NNc1ccc(F)cc1F)c1cnccn1` [Compound 9g], the MIC in [1] (setting [4]) worked out at 0.98 µg/mL (≈ 3.92 µM); in [1] (setting [2]), 0.98 µg/mL (≈ 3.92 µM); in the assay on C. auris AR Bank #389 (setting [5]), 0.49 µg/mL (≈ 1.96 µM); in the assay on C. auris AR Bank #385 (setting [6]) it was 0.98 µg/mL (≈ 3.92 µM); in the assay with C. auris AR Bank #381 (setting [7]), 3.9 µg/mL (≈ 15.6 µM); in the assay with C. auris AR Bank #386 (setting [8]) it was 0.49 µg/mL (≈ 1.96 µM). Further, the MIC with C. auris AR Bank #383 (setting [9]) came to 0.98 µg/mL (≈ 3.92 µM); in the assay on C. auris AR Bank #382 (setting [10]), 1.95 µg/mL (≈ 7.79 µM); in the assay on C. auris AR Bank #387 (setting [11]) it was 0.49 µg/mL (≈ 1.96 µM); in the assay on C. auris AR Bank #388 (setting [12]), 0.49 µg/mL (≈ 1.96 µM).

The molecule `O=C(NNc1cccc(F)c1)c1ccc(F)cc1F` [Compound 1a] came in with an MIC in assay [1] (setting [3]) of 0.24 μg/mL^−1.

On to `COc1ccc(NNC(=O)c2cccc(F)n2)cc1` [Compound 5f], for which the MIC in [1] (setting [2]) came out at 1.95 µg/mL (≈ 7.46 µM).

With `COc1cccc(NNC(=O)c2ccccn2)c1` [Compound 2c], the MIC in assay [1] (C. auris AR Bank #390 (L)) amounted to 0.98 μg/mL^−1; in assay [1] (setting [3]) it was 0.98 μg/mL^−1; against C. auris AR Bank #389 (C. auris AR Bank #389) it was 0.49 μg/mL^−1; with C. auris AR Bank #385 (C. auris AR Bank #385), 3.9 μg/mL^−1; against C. auris AR Bank #381 (C. auris AR Bank #381), 3.9 μg/mL^−1; with C. auris AR Bank #386 (C. auris AR Bank #386) it was 0.49 μg/mL^−1. The MIC worked out at 0.98 μg/mL^−1 in the assay with C. auris AR Bank #383 (C. auris AR Bank #383), 0.98 μg/mL^−1 in the assay on C. auris AR Bank #382 (C. auris AR Bank #382), 0.49 μg/mL^−1 in the assay on C. auris AR Bank #387 (C. auris AR Bank #387) and 3.9 μg/mL^−1 in the assay on C. auris AR Bank #388 (C. auris AR Bank #388).

For `O=C(NNc1cc(F)ccc1F)c1ccccn1` [Compound 2h], the MIC in [1] (setting [4]) worked out at 0.98 µg/mL (≈ 3.93 µM); in [1] (setting [2]) it was 0.98 µg/mL (≈ 3.93 µM); in the assay on C. auris AR Bank #389 (setting [5]) it was 0.49 µg/mL (≈ 1.97 µM); in the assay with C. auris AR Bank #385 (setting [6]), 0.49 µg/mL (≈ 1.97 µM); in the assay with C. auris AR Bank #381 (setting [7]) it was 1.95 µg/mL (≈ 7.82 µM); in the assay with C. auris AR Bank #386 (setting [8]) it was 0.12 µg/mL (≈ 0.482 µM). The MIC in the assay on C. auris AR Bank #383 (setting [9]) worked out at 0.49 µg/mL (≈ 1.97 µM); in the assay with C. auris AR Bank #382 (setting [10]) it was 0.24 µg/mL (≈ 0.963 µM); with C. auris AR Bank #387 (setting [11]), 0.49 µg/mL (≈ 1.97 µM); with C. auris AR Bank #388 (setting [12]), 0.49 µg/mL (≈ 1.97 µM).

Consider `O=C(NNc1cc(F)cc(F)c1)c1ccc(F)cc1F` [Compound 1i], for which the MIC in [1] (setting [2]) was found to be 15.6 µg/mL (≈ 54.9 µM).

In the case of `COc1cccc(NNC(=O)c2ccc(F)cc2F)c1` [Compound 1c], the MIC in assay [1] (setting [2]) was determined as 1.95 µg/mL (≈ 7.01 µM).

Turning to `O=C(NNc1cc(F)ccc1F)c1cnccn1` [Compound 9h], the MIC in [1] (setting [2]) was 1.95 µg/mL (≈ 7.79 µM).

Consider `O=C(NNc1ccc(Cl)cc1)c1ccc(F)cc1F` [Compound 1e], for which the MIC in assay [1] (setting [3]) is >31.3 μg/mL^−1.

In the case of `O=C(NNc1cccc(F)c1)c1ccc(F)cn1` [Compound 3a], in [1] (setting [3]), the MIC is reported as 0.98 μg/mL^−1.

Consider `COc1cccc(NNC(=O)c2nc(F)ccc2F)c1` [Compound 8c], for which, in assay [1] (setting [2]), the MIC was determined as 15.6 µg/mL (≈ 55.9 µM).

Source of the values: US20240425464A1, “Substituted Monohydrazides as Potent Antifungal Agents” (University of Kentucky Research Foundation, priority 2023, published 2024).
